Source: article PMC5684418, “Structural remodeling and oligomerization of human cathelicidin on membranes suggest fibril-like structures as active species” (Scientific Reports, 2017)
Ends that are not written are not given here.

Key:
[1] = Oligomerization by size exclusion chromatography (SEC); type: physicochemical
Method: The oligomeric state of the peptide in the absence and presence of detergents was characterized on Superdex75 10/300 GL column (GE Healthcare) at peptide concentrations of 0.7 (0.16 mM) or 3.7 mg/ml (0.83 mM) respectively. The column was equilibrated using buffer A containing 100 mM NaCl, 10 mM NaHCO3, 5 mM sodium phosphate, pH 6.8, for the detergent free sample. SEC in the presence of detergents was performed at 0.7 mg/ml (0.16 mM) of LL-37 in buffer A plus the following detergent concentrations: 0.2% LDAO (8.7 mM), 0.05% DDM (0.98 mM), 0.2% DPC (5.6 mM). Peptides were incubated with buffer A and buffer-detergent solutions for 30 minutes before 200 μl samples were loaded onto the column. The flow rate of the column was adjusted to 0.5 ml/min and all runs were performed at room temperature. The peptide retention time was monitored at 215 nm due to the absence of Trp and Tyr residues.

[2] = Analytical ultracentrifugation (AUC), equilibrium sedimentation; type: physicochemical; conditions: 0.33 mg/ml (0.07 mM) in 50 mM phosphate buffer pH 7.2, 0.04% DDM, 18.000 rpm, 20°C, 230 nm; data not shown
Excerpt: Supplementa ry mat eria l to the paper:
Structural remodeling and oligomerization of human cathelicidin on membranes […]
by Enea Sancho-V aello, Patrice François, Eve-Julie Bonetti, Hauke Lilie, Sebastian Finger, Fernando Gil-Ortiz, Davi d Gil -Carton, Kornelius Zeth
Peptides, lipids and detergents
All peptides used in our study were chemically synthesized and purchased from Peptide2.0(www.peptide20.com), Proteogenix (www.ProteoGenix.fr) or Genecust (www. gen ecust.com) at purities of higher than 95%. Detergents used in this study are N - o c t yl -β-D-glucoside(Apollo Scientific limited), N-D o d e c yl -β-D-maltoside (Apollo Scientific limited), N-dodecylphosphocholine(Affymetrix) and N-dodec yl-N,N-dimethylamine-N-ox ide(Aff ymetrix ). The lipids 1,2- dioleoyl-sn-gl yc e r o -3- phosphocholine (DOPC), 1,2- dioleoyl-s n gl yc e r o -3- phosphoglycerol(DOPG) and cardiolipin (CL) were purchased from Avanti P olarLipids, Inc. (Alab aster, A L, USA). […]
Centrifugationruns were performed at 18.000 rpm and 20°C; data were collected at a wavelength of 230 nmusi ng a concentration of 0.33 mg/ml (0.07 mM) in 50 mM phosphate buffer, pH 7.2. […] The radial distribution of LL-37 at sedimentation equilibrium in the respective bufferwas linearized according to the Lamm equation 1and the slope dlnc/dr2 with c representingthe peptide concentration at the radial position r was determined experimentally. […]

[3] = Peptide-lipid overlay assay (lipid strips); type: binding; conditions: 100 pmol lipid spots, LL-37 0.04 mg/ml, 1 h room temperature, anti-LL-37 HRP antibody, qualitative
Method: The lipid affinity of LL-37 was assessed using peptide-lipid overlay assays of commercially available lipid strips blotted with 100 pmol of biologically relevant lipids (Echelon Biosciences, Salt Lake City, UT), following the manufacturer’s instructions. Lipid strips were blocked with 1% fat-free milk in TBS (150 mM NaCl, 50 mM Tris-HCl, pH 7.6) for 1 h at room temperature and then incubated with LL-37 (0.04 mg/ml) dissolved in 10 mM NaHCO3, 100 mM NaCl, 5 mM sodium phosphate, pH 8, plus 1% fat-free milk in TBS for 1 h at room temperature. The lipid strips were first washed with TBS buffer three times, and then incubated overnight at 4 °C in a solution of TBS containing 1% fat free milk and the anti-LL-37 HRP-labelled antibody (Innovagen, Sweden) in a 1:2000 dilution. After being washed three times with TBS, the peptide was detected by chemoluminescence using the super-signal western femto maximum sensitivity substrate kit (Thermo Scientific, Pierce Biotechnology, Inc).

E. coli K12 cells = test: Cryo-electron microscopy of E. coli incubated with gold-labelled peptide; type: cell-based; conditions: E. coli K12, 18 µM (80 µg/ml) labelled peptide, 37 °C, 80 minutes
Method: E. coli K12 cells were grown at 37 °C at 200 rpm up to an OD of 0.6, and labeled LL-37 nanogold was added to 1 ml culture to reach a final concentration of 18 µM (80 µg/ml). The cultures were further incubated at 37 °C while shaking at 300 rpm (Eppendorf Thermomixer, Hamburg, Germany). After 80 minutes, 200 μl of the sample were taken and cells were pelleted at 3000*g for 10 min at 4 °C. The cell pellet was resuspended using 15 μl of culture solution in order to concentrate the sample and reach a sufficiently high cell density for the visualization in the microscope.

[4] = Cryo-EM of small unilamellar lipid vesicles incubated with gold-labelled peptide; conditions: DOPC:DOPG (3:7) SUVs, peptide:lipid 1:250, 15 minutes
Method: For the labeling of LL-37 with 1.4 nm nanogold particles (Nanoprobes, Inc), 200 µM of the S37C peptide were reduced using 5 mM of Dithiothreitol (DTT) in the presence of 5 mM EDTA and 100 mM sodium phosphate, pH 7, at room temperature for 1 hour while shaking. The excess of DTT was removed using a 3 kD-cutoff ultrafiltration cell (Amicon, Millipore). Nanogold at 6 nmol concentration was incubated with the peptide at room temperature for 2 hours while shaking. To remove the excess of nanogold, the mixture was loaded onto a Superdex 75 10/300 GL column (GE Healthcare) with 150 mM NaCl and 20 mM sodium phosphate, pH 7. The fractions containing the labeled peptide were concentrated using a 3 kD-cutoff (Amicon, Millipore) ultrafiltration device. The DOPC:DOPG (3:7) SUVs (small unilamellar vesicles) were prepared using a mini-extruder (Avanti Polar Lipids, Inc). Their size and homogeneity was checked using dynamic light scattering (DLS). DOPC:DOPG vesicles were treated with nanogold labeled LL-37 (ratio of peptide to lipid 1:250).

Molecule: CC[C@H](C)[C@H](NC(=O)[C@H](CCCCN)NC(=O)[C@H](CCC(=O)O)NC(=O)[C@H](CCCCN)NC(=O)[C@H](CO)NC(=O)[C@H](CCCCN)NC(=O)[C@H](CCCNC(=N)N)NC(=O)[C@H](Cc1ccccc1)NC(=O)[C@H](Cc1ccccc1)NC(=O)[C@H](CC(=O)O)NC(=O)CNC(=O)[C@H](CC(C)C)NC(=O)[C@@H](N)CC(C)C)C(=O)NCC(=O)N[C@@H](CCCCN)C(=O)N[C@@H](CCC(=O)O)C(=O)N[C@@H](Cc1ccccc1)C(=O)N[C@@H](CCCCN)C(=O)N[C@@H](CCCNC(=N)N)C(=O)N[C@H](C(=O)N[C@H](C(=O)N[C@@H](CCC(N)=O)C(=O)N[C@@H](CCCNC(=N)N)C(=O)N[C@H](C(=O)N[C@@H](CCCCN)C(=O)N[C@@H](CC(=O)O)C(=O)N[C@@H](Cc1ccccc1)C(=O)N[C@@H](CC(C)C)C(=O)N[C@@H](CCCNC(=N)N)C(=O)N[C@@H](CC(N)=O)C(=O)N[C@@H](CC(C)C)C(=O)N[C@H](C(=O)N1CCC[C@H]1C(=O)N[C@@H](CCCNC(=N)N)C(=O)N[C@H](C(=O)N[C@@H](CCC(=O)O)C(=O)N[C@@H](CO)C(=O)O)[C@@H](C)O)C(C)C)[C@@H](C)CC)C(C)C)[C@@H](C)CC [LL-37]
- Oligomeric state in SEC, dominating species ([1]; 0.16 mM (0.7 mg/ml) peptide, no detergent, Superdex75 10/300 GL, 100 mM NaCl, 10 mM NaHCO3, 5 mM sodium phosphate pH 6.8, room temperature, 215 nm): monomeric
- Oligomeric state in SEC in the presence of detergents ([1]; 0.16 mM peptide with 0.2% LDAO, 0.2% DPC or 0.05% DDM, 30 min pre-incubation, buffer pH 6.8, room temperature): tetramers or hexamers
- Oligomeric state in SEC (retention time range) ([1]; 0.83 mM (3.7 mg/ml) peptide, no detergent, Superdex75 10/300 GL, buffer pH 6.8, room temperature, 215 nm): tetramer or hexamer
- Molecular weight in SEC in the presence of detergents ([1]; in the presence of DDM, DPC and LDAO): around 30 kD
- Molecular weight by AUC in DDM [2]: ~ 28 kD
- Interaction with PS (lipid overlay) ([3]; chemoluminescence): strong interactions
- Binding to PC (lipid overlay) [3]: does not bind
- Interaction with CL (lipid overlay) [3]: strong interactions
- Interaction with PE (lipid overlay) [3]: strong interactions
- Interaction with PG (lipid overlay) [3]: strong interactions
- Interaction with PI (lipid overlay) [3]: do not interact
- Interaction with PI-4 (lipid overlay) [3]: do not interact
- Interaction with PI-4,5 (lipid overlay) [3]: do not interact
- Interaction with phosphatidic-acid (lipid overlay) [3]: strong interactions
- Interaction with sulfatide (lipid overlay) [3]: strong interaction
- Recognition of PI-3, 4, 5 (lipid overlay) [3]: recognized

Molecule: gold-labelled LL-37: S37C mutant of LL-37 labeled at the C-terminus with 1.4 nm nanogold particles (LLGDFFRKSKEKIGKEFKRIVQRIKDFLRNLVPRTEC; also: labeled at the C-terminus with 1.4 nm nanogold particles, attachment not given here; UniProt P49913 134-170, looked up, variant S37C)
- Effect on E. coli membranes (cryo-EM) (E. coli K12 cells): clear perforation of the outer but not of the inner membrane
- Membrane perturbation of lipid vesicles (cryo-EM) [4]: no significant membrane perturbation

Molecule: LLGDFFRKSKEKIGKEFKRIVQRIKDF [LL-28]
- MIC against E. coli in the presence of detergent (E. coli): 6 µg/mL
